Test results: patent US8716285B2, “N-hydroxy-benzamids for the treatment of cancer” (Hoffmann-La Roche Inc., priority 2010, dated 2014)

What was measured:
recombinant human HDAC8 = recombinant human HDAC8 (Homo sapiens (Human), UniProt Q9BY41); assay: HDAC8 inhibition: recombinant HDAC8 fluorometric assay; assay type: biochemical; details: recombinant human HDAC8, substrate Ac-Arg-His-Lys-Lys(ε-acetyl)-AMC
Protocol: A competitive inhibitory assay of HDAC8 was carried out by using recombinant HDAC8 and a commercial substrate Ac-Arg-His-Lys-Lys(ε-acetyl)-AMC.
Compounds were tested for their ability to inhibit histone deacetylase 8 using an in vitro deacetylation assay. The enzyme source for this assay was recombinant human HDAC8 protein expressed and purified from insect cells. […] The substrate consisted of a commercial product Ac-Arg-His-Lys-Lys(ε-acetyl)-AMC (substrate is available from Cayman Chemical). […] In a detailed procedure, 8 μl of HDAC8 enzyme solution (0.125 μg/μl) was transferred to assay plates (CORNING 3676). 1 μl of half-log diluted compounds were added into wells and incubated for 15 min at rt. After that, 8 μl of substrate solution was transferred to the wells and incubated for 30 min at rt. After deacetylation of the substrate by incubation with HDAC8 enzyme, subsequent exposure to a developing reagent produced a fluorophore that was directly proportional to the level of deacetylation. So 4 μl of developer regent (Cayman 10006394) was added into the wells in the assay plates and incubated for 15 min. The fluorescence signal was measured by a FlexStation3 plate reader (excitation wave length 340-360 nm; emission wave length 440-465 nm). The IC50 was calculated after normalization and curve fitting using XLfit4.0 software. Inhibition %=[Mean(top)−signal(sample)]*100/[Mean(top)−Mean(bottom)].

HDAC6 = HDAC6 (Homo sapiens (Human), UniProt Q9UBN7); assay: Tubulin acetylation cytoblot assay (A549 cells); assay type: cell-based; details: 17-18 h, concentration for 50% induction of acetylated tubulin, read-out: Tub-ac EC50
Chain of HDAC6 (Q9UBN7 whole entry): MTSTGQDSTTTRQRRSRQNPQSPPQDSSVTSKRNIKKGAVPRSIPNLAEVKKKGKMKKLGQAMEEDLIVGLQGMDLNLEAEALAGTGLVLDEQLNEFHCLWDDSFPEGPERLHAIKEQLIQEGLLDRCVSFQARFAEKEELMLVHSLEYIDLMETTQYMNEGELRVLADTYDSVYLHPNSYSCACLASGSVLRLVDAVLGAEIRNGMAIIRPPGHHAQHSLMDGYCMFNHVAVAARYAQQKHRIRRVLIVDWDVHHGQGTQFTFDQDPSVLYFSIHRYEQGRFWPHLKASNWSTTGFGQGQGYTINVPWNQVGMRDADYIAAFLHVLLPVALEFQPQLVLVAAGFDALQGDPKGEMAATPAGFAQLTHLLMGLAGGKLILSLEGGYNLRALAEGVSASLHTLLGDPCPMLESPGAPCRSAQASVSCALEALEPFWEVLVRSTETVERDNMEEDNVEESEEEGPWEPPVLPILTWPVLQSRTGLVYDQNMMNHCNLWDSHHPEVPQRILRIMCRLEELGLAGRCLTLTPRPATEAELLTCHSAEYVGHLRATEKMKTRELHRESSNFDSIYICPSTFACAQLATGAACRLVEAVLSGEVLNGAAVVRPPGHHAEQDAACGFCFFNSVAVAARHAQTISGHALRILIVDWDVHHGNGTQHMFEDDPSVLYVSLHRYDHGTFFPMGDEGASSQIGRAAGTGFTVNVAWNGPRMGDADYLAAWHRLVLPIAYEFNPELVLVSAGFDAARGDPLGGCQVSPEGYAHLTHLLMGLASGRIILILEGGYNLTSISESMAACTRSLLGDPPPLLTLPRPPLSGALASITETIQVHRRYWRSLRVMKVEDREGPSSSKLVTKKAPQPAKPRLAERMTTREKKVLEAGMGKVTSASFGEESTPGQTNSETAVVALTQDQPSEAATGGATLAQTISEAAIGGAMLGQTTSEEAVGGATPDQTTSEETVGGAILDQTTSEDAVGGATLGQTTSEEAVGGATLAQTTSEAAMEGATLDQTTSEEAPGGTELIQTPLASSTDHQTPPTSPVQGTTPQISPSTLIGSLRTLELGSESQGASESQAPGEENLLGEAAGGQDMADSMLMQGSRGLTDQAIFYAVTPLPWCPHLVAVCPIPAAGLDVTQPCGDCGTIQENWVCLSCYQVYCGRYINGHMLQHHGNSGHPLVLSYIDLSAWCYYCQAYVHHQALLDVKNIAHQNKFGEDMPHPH
Protocol: Tubulin acetylation is a PD marker for HDAC6 inhibition. The extent of tubulin acetylation represents the inhibitory effect on HDAC6.
Novel compounds were tested for their ability to inhibit HDAC6 using a cell-based deacetylation assay. Tubulin acetylation was detected by the anti-acetylated tubulin antibody (Sigma) and horse radish peroxidase (HRP) conjugated secondary antibody (KangChen Bio. Tech.). […] 20 μl of diluted compound solution was transferred to the cell culture plate and incubated for 17-18 h. After medium removal and fixation by formaldehyde (3.7% paraformaldehyde in TBS), the cells in the plates were treated with 180 μl of −20° C. MeOH and incubated for 5 min at rt. The cell lysis was incubated with 75 μl of primary anti-acetylated tubulin antibody and secondary HRP conjugated antibody solution (1:750 anti-acetylated tubulin, 1:750 HRP conjugated anti-mouse IgG in antibody dilution buffer not containing sodium azide) for 4 h at 4° C. By adding the HRP substrate, enhanced chemiluminescence (ECL) reagent (GE Healthcare) generated luminescence corresponding to the level of tubulin acetylation. So that 75 μl of ECL was added into the wells and the luminescence from each well was immediately quantified by the plate reader. Based on the luminescence reading, the IC50s against HDAC6 of the tested compounds were calculated by plotting the curve with XLfit4.0 software. Inhibition %=[signal(sample)−Mean(bottom)]*100/[Mean(top)−Mean(bottom)]

[1] = system: p21 promoter-luciferase construct; assay: p21 reporter gene induction in HeLa cells transfected with p21 promoter-luciferase construct; assay type: cell-based; details: for p21 RP3: relative gene level of p21 induced compared to MS275 at 3 μM; for p21 RP10: relative level of p21 induced compared to MS275 at 10 μM; for p21 RP30: relative level of p21 induced compared to MS275 at 30 μM
Protocol: As a surrogate for in-cell HDAC1/2/3 inhibition, p21 induction was used as a counterscreen to evaluate the selectivity of the compounds in the present invention toward HDAC6 or HDAC8.
The novel compounds of the present invention were tested for their ability to induce p21 gene expression using a reporter gene assay involving HeLa cells transfected with a p21 promoter-luciferase construct. The p21 promoter contained the Sp1/Sp3 binding site for HDAC but not the upstream p53 binding site. Briefly, the day before transfection, HeLa cells were seeded at 11,000 cells/well in a 96-well culture plate and incubated at 37° C. in 5% CO2 overnight. A transfection media was prepared prior to transfection according to the following procedure: (1) 5 μl serum-free DMEM, 0.15 μl Fugene 6 reagent, 40 ng p21-luc, 10 ng GFP were mixed gently and incubated at rt for 30 minutes; (2), then 98 μl DMEM (with 10% FBS, 1% penicillin and streptomycin) was added to the DNA: Fugene 6 reagent complex and mixed gently. For transfection, the medium was removed and replaced with 100 μl/well transfection media which was prepared according to the procedure above. After incubating the cells for 24 hours at 37° C. in 5% CO2, fresh media and test compounds were added to the wells and the cells further incubated for 15 hours at 37° C. in 5% CO2. Cells were lysed by adding 80 μl/well of a cell culture lysis reagent (Promega). […] 100 μl luciferase assay reagent (Promega) was then added to every 20 μl cell lysate for luminometer detection. […] Induction activity for specific representative compounds can be found in Table 3.

Chain of recombinant human HDAC8 (Q9BY41 whole entry): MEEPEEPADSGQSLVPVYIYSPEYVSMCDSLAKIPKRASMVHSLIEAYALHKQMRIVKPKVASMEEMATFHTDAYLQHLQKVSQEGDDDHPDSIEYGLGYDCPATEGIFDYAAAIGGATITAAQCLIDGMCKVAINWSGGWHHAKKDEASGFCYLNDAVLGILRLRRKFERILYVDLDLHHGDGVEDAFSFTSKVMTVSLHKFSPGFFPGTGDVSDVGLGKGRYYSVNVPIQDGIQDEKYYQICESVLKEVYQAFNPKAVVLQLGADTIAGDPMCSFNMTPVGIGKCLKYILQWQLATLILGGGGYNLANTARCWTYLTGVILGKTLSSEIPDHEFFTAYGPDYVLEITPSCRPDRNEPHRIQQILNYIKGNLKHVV

| Compound | IC50 (recombinant human HDAC8) [nM] | EC50 (HDAC6) [nM] | p21 RP3 [1] | p21 RP10 [1] | p21 RP30 [1] |
| --- | --- | --- | --- | --- | --- |
| O=C(NO)c1ccc2c(c1)CC(Nc1ccc(Br)cc1)CC2 (centres unmarked) [Example 2, 7-(4-bromo-phenylamino)-5,6,7,8-tetrahydro-naphthalene-2-carboxylic acid hydroxyamide] | 680 | 5470 | 0.26 | −0.06 | −0.04 |
| O=C(NO)c1ccc2c(c1)CC(Nc1ccc([N+](=O)[O-])cc1)CC2 (centres unmarked) [Example 3, 7-(4-nitro-phenylamino)-5,6,7,8-tetrahydro-naphthalene-2-carboxylic acid hydroxyamide] | 3740 | 1860 | 0.08 | −0.08 | −0.06 |
| O=C(NO)c1ccc2c(c1)CC(Nc1ccccn1)CC2 (centres unmarked) [Example 5, 7-(Pyridin-2-ylamino)-5,6,7,8-tetrahydro-naphthalene-2-carboxylic acid hydroxyamide] | 2900 |  |  |  |  |
| O=C(NO)c1ccc2c(c1)CC(Nc1ccc([N+](=O)[O-])cn1)CC2 (centres unmarked) [Example 6, 7-(5-Nitro-pyridin-2-ylamino)-5,6,7,8-tetrahydro-naphthalene-2-carboxylic acid hydroxyamide] | 930 | 2070 | 0.18 | 0.03 | −0.01 |
| O=C(NO)c1ccc2c(c1)CC(Nc1nccc(C(F)(F)F)n1)CC2 (centres unmarked) [Example 8, 7-(4-Trifluoromethyl-pyrimidin-2-ylamino)-5,6,7,8-tetrahydro-naphthalene-2-carboxylic acid hydroxyamide] | 300 | 830 | −0.12 | −0.06 | −0.19 |
| CCOc1cc(C)nc(NC2CCc3ccc(C(=O)NO)cc3C2)n1 (centres unmarked) [Example 9, 7-(4-Ethoxy-6-methyl-pyrimidin-2-ylamino)-5,6,7,8-tetrahydro-naphthalene-2-carboxylic acid hydroxyamide] | 290 | 1680 | −0.21 | −0.03 | −0.10 |
| Cc1ccc(-c2ccnc(NC3CCc4ccc(C(=O)NO)cc4C3)n2)cc1 (centres unmarked) [Example 11, 7-(4-p-Tolyl-pyrimidin-2-ylamino)-5,6,7,8-tetrahydro-naphthalene-2-carboxylic acid hydroxyamide] | 800 | 5100 | −0.13 | −0.18 | −0.18 |
| O=C(NO)c1ccc2c(c1)CC(Nc1nccc(-c3ccc(Oc4ccccc4)cc3)n1)CC2 (centres unmarked) [Example 23, 7-[4-(4-Phenoxy-phenyl)-pyrimidin-2-ylamino]-5,6,7,8-tetrahydro-naphthalene-2-carboxylic acid hydroxyamide] | 1440 |  | 0.30 | 0.00 | −0.10 |
| O=C(NO)c1ccc2c(c1)CC(Nc1nccc(-c3ccc4ccccc4c3)n1)CC2 (centres unmarked) [Example 33, 7-(4-Naphthalen-2-yl-pyrimidin-2-ylamino)-5,6,7,8-tetrahydro-naphthalene-2-carboxylic acid hydroxyamide] | 3780 |  | 0.19 | −0.20 | −0.25 |
| O=C(/C=C/c1cccnc1)NC1CCc2ccc(C(=O)NO)cc2C1 (centres unmarked) [Example 37, 7-((E)-3-Pyridin-3-yl-acryloylamino)-5,6,7,8-tetrahydro-naphthalene-2-carboxylic acid hydroxyamide] | 990 |  | −0.18 | −0.05 |  |
| O=C(NO)c1ccc2c(c1)CC(NS(=O)(=O)c1cccc(Cl)c1)CC2 (centres unmarked) [Example 42, 7-(3-Chloro-benzenesulfonylamino)-5,6,7,8-tetrahydro-naphthalene-2-carboxylic acid hydroxyamide] | 160 |  |  |  |  |
| O=C(NO)c1cc2c(cc1F)CCC(Nc1ncccn1)C2 (centres unmarked) [Example 49, 3-Fluoro-7-(pyrimidin-2-ylamino)-5,6,7,8-tetrahydro-naphthalene-2-carboxylic acid hydroxyamide] |  | 4300 | 0.50 | 0.08 | 0.00 |
| O=C(NO)c1ccc2c(c1)CC(Nc1nccc(-c3cccnc3)n1)CN2 (centres unmarked) [Example 53] |  | 11800 | 0.18 | 0.03 | 0.02 |
| O=C(NO)c1ccc2c(c1)CC(NS(=O)(=O)c1ccc(Cl)cc1)CN2 (centres unmarked) [Example 60, 3-(4-Chloro-benzenesulfonylamino)-1,2,3,4-tetrahydro-quinoline-6-carboxylic acid hydroxyamide] | 1460 |  | 0.46 | 0.10 | 0.04 |
| O=C(NO)c1ccc2c(c1)CC(NS(=O)(=O)c1cccc(Cl)c1)CN2 (centres unmarked) [Example 61, 3-(3-Chloro-benzenesulfonylamino)-1,2,3,4-tetrahydro-quinoline-6-carboxylic acid hydroxyamide] | 970 |  | 0.21 | 0.07 | 0.04 |
| O=C(NO)c1ccc2c(c1)CC(NS(=O)(=O)c1cccc(F)c1)CN2 (centres unmarked) [Example 62, 3-(3-Fluoro-benzenesulfonylamino)-1,2,3,4-tetrahydro-quinoline-6-carboxylic acid hydroxyamide] | 1140 |  | 0.13 | 0.02 | 0.01 |
| O=C(NO)c1ccc2c(c1)CC(NS(=O)(=O)c1cccc(OC(F)(F)F)c1)CN2 (centres unmarked) [Example 63, 3-(3-Trifluoromethoxy-benzenesulfonylamino)-1,2,3,4-tetrahydro-quinoline-6-carboxylic acid hydroxyamide] | 1610 |  | 0.11 | 0.04 | 0.01 |
| COc1ccc(S(=O)(=O)NC2CNc3ccc(C(=O)NO)cc3C2)cc1OC (centres unmarked) [Example 64, 3-(3,4-Dimethoxy-benzenesulfonylamino)-1,2,3,4-tetrahydro-quinoline-6-carboxylic acid hydroxyamide] | 1220 |  | −0.02 | 0.06 | 0.04 |
